Measurements: ChEMBL document CHEMBL3862033 (J Med Chem, 2016)
The source made the active and inactive calls. No cut-off for these calls is given here.

What was measured:
[1] = target: T1, 5-hydroxytryptamine receptor 1A (Homo sapiens) (UniProt P08908); experiment: Displacement of [3H]WAY100635 from human 5-HT1AR expressed in CHO cell membranes at 10 uM incubated for 90 mins under dark condition by microbeta scintillation counting method relative to control
T1 sequence (whole entry): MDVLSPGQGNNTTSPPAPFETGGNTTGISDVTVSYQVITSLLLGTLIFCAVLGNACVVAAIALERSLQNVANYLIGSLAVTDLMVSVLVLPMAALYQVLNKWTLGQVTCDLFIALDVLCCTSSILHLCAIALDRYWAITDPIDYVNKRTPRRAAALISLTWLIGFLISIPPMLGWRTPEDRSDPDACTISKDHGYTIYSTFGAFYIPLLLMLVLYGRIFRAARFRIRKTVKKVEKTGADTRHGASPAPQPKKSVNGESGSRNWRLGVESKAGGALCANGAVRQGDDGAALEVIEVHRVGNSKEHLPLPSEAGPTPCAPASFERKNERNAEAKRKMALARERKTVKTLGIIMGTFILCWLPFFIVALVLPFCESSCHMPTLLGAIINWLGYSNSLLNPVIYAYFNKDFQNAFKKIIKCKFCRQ

[2] = target: 5-hydroxytryptamine receptor 1B (Homo sapiens) (UniProt P28222); experiment: Displacement of [3H]5-CT from human 5-HT1BR expressed in HEK cell membranes at 10 uM incubated for 90 mins under dark condition by microbeta scintillation counting method relative to control; conditions: HEK293
5-hydroxytryptamine receptor 1B (Homo sapiens), sequence (P28222 whole entry): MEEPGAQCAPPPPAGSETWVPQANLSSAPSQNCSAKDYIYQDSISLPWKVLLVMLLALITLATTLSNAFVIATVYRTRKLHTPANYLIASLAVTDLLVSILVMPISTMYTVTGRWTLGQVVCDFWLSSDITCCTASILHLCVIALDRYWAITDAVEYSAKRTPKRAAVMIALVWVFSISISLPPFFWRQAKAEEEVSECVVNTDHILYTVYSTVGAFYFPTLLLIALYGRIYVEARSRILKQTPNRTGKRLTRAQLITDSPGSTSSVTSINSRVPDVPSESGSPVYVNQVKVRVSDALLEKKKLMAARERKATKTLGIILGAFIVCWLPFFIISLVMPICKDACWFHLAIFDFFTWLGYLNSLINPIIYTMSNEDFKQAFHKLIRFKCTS

[3] = target: 5-hydroxytryptamine receptor 1D (Homo sapiens) (UniProt P28221); experiment: Displacement of [3H]5-CT from human 5-HT1D receptor expressed in HEK-T cell membranes at 10 uM incubated for 90 mins under dark condition by microbeta scintillation counting method relative to control
5-hydroxytryptamine receptor 1D (Homo sapiens), sequence (P28221 whole entry): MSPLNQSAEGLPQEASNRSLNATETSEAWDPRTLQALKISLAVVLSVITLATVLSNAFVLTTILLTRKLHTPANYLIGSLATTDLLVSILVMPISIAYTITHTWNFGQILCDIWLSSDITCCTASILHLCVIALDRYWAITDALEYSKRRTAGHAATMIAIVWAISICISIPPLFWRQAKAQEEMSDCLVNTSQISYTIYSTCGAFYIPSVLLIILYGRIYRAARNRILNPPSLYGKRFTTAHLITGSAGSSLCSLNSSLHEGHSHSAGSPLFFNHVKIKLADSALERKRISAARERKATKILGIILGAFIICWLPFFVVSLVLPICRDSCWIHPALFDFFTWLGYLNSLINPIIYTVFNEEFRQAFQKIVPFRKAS

[4] = target: 5-hydroxytryptamine receptor 1E (Homo sapiens) (UniProt P28566); experiment: Displacement of [3H]5-HT from human 5-HT1E receptor expressed in HEK cell membranes at 10 uM incubated for 90 mins under dark condition by microbeta scintillation counting method relative to control; conditions: HEK293
5-hydroxytryptamine receptor 1E (Homo sapiens), sequence (P28566 whole entry): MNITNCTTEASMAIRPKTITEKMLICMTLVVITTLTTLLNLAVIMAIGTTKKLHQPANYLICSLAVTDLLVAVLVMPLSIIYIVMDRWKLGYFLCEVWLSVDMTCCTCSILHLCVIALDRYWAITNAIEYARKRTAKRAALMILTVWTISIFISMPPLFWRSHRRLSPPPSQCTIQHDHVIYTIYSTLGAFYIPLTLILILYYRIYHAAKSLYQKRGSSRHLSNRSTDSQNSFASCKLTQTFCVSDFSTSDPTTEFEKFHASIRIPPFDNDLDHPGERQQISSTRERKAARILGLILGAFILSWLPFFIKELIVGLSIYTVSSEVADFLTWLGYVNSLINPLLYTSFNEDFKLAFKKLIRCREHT

[5] = target: 5-hydroxytryptamine receptor 4 (Homo sapiens) (UniProt Q13639); experiment: Displacement of [3H]GR113808 from human 5-HT4 receptor at 10 uM incubated for 90 mins under dark condition by microbeta scintillation counting method relative to control
5-hydroxytryptamine receptor 4 (Homo sapiens), sequence (Q13639 whole entry): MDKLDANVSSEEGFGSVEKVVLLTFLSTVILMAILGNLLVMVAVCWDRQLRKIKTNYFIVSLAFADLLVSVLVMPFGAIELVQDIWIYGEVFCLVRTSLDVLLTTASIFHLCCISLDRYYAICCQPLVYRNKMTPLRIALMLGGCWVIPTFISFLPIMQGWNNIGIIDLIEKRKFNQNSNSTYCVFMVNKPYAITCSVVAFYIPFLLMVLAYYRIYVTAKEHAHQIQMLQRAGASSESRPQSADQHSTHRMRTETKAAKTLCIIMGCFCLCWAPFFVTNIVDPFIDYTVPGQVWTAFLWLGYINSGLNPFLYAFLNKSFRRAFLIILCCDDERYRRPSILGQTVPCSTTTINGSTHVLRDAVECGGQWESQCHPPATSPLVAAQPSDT

[6] = target: 5-hydroxytryptamine receptor 6 (Homo sapiens) (UniProt P50406); experiment: Displacement of [3H]LSD from human 5-HT6 receptor expressed in HEK cell membranes at 10 uM incubated for 90 mins under dark condition by microbeta scintillation counting method relative to control; conditions: HEK293
5-hydroxytryptamine receptor 6 (Homo sapiens), sequence (P50406 whole entry): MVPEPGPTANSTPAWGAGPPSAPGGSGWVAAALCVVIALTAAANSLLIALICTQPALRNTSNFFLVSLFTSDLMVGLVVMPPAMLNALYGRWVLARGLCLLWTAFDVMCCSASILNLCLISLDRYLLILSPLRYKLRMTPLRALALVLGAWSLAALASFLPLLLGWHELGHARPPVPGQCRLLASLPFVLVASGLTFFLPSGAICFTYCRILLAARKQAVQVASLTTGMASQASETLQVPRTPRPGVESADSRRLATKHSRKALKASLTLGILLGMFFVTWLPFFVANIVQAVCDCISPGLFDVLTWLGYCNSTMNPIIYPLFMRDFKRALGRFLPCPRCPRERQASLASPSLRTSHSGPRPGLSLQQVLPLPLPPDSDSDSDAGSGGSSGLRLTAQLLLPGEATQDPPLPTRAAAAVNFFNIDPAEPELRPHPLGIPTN

[7] = target: 5-hydroxytryptamine receptor 7 (Homo sapiens) (UniProt P34969); experiment: Displacement of [3H]LSD from human 5-HT7A receptor expressed in HEK cell membranes at 10 uM incubated for 90 mins under dark condition by microbeta scintillation counting method relative to control; conditions: HEK293
5-hydroxytryptamine receptor 7 (Homo sapiens), sequence (P34969 whole entry): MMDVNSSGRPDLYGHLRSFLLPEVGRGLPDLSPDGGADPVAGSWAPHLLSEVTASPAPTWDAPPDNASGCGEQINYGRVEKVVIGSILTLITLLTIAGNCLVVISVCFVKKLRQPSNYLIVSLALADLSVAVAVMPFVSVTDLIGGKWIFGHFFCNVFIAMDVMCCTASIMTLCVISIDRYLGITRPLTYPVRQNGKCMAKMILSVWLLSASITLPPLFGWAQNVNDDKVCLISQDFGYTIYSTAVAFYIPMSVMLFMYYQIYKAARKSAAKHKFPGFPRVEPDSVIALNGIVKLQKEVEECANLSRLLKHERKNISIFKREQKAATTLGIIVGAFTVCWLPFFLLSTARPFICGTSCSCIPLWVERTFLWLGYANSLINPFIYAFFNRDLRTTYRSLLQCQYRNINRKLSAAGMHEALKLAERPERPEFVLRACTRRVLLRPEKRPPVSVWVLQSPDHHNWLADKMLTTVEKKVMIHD

[8] = target: T2, 5-hydroxytryptamine receptor 3A (Homo sapiens) (UniProt P46098); experiment: Displacement of [3H]GR65630 from human 5-HT3 receptor expressed in HEK-T cell membranes at 10 uM incubated for 90 mins under dark condition by microbeta scintillation counting method relative to control
T2 sequence (whole entry): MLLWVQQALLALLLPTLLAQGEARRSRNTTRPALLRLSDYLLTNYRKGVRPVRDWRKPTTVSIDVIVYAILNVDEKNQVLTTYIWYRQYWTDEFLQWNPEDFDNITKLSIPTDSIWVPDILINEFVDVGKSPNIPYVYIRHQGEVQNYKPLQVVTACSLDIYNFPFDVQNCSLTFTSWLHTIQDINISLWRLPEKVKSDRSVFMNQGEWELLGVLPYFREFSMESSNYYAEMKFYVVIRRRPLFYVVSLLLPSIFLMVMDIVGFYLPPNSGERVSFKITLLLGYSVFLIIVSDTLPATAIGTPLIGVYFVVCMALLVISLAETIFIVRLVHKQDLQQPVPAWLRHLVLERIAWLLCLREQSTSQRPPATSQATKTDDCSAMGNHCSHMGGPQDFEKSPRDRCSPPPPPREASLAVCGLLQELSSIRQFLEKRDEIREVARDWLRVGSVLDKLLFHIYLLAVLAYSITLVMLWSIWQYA

[9] = target: 5-hydroxytryptamine receptor 5A (Homo sapiens) (UniProt P47898); experiment: Displacement of [3H]LSD from human 5-HT5A receptor expressed in Flp-In-CHO cell membranes incubated for 90 mins under dark condition by microbeta scintillation counting method relative to control; design: concentration or dose not given beside the values
5-hydroxytryptamine receptor 5A (Homo sapiens), sequence (P47898 whole entry): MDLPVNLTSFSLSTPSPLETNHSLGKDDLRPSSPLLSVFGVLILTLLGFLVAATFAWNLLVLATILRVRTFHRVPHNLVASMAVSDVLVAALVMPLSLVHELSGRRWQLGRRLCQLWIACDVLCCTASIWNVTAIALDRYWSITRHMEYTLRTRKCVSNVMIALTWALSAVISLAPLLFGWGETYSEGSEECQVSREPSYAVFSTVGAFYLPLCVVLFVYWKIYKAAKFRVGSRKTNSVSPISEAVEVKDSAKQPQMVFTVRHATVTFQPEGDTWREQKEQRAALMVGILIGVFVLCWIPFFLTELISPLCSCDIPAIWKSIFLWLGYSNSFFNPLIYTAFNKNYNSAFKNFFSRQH

[10] = target: T3, 5-hydroxytryptamine receptor 2A (Homo sapiens, UniProt P28223); experiment: Displacement of [3H]ketanserin from human 5-HT2A receptor expressed in HEK-T cell membranes at 10 uM incubated for 90 mins under dark condition by microbeta scintillation counting method relative to control
T3 sequence (P28223 whole entry): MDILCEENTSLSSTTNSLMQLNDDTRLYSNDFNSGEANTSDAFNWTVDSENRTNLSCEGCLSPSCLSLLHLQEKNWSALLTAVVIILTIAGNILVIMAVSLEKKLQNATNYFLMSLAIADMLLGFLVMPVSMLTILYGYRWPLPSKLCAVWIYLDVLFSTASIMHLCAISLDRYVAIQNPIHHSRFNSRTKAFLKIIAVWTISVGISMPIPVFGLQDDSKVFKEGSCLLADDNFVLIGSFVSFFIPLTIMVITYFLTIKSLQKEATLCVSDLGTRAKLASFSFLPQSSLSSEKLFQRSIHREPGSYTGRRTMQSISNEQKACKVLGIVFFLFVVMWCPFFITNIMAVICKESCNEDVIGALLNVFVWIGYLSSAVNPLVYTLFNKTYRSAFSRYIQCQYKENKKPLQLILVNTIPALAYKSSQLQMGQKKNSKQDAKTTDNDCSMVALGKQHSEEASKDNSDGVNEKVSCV

[11] = target: T4, 5-hydroxytryptamine receptor 2B (Homo sapiens, UniProt P41595); experiment: biochemical; type: cell-based, HEK293
T4 sequence (P41595 whole entry): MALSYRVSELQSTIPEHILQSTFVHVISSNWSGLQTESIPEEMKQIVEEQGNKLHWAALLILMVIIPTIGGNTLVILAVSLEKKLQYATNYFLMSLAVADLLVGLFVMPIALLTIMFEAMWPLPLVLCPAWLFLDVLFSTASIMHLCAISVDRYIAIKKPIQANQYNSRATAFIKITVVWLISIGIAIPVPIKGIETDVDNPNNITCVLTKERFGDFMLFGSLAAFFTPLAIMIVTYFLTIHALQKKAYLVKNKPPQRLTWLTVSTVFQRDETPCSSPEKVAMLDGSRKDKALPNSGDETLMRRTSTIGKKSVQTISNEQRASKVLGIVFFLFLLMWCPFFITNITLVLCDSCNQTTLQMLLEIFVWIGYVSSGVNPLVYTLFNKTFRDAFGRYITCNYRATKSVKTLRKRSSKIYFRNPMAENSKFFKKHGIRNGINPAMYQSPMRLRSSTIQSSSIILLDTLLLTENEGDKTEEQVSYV

[12] = target: T5, 5-hydroxytryptamine receptor 2C (Homo sapiens, UniProt P28335); experiment: Displacement of [3H]mesulergine from human 5-HT2CR expressed in Flp-In HEK cell membranes incubated for 90 mins under dark condition by microbeta scintillation counting method; design: species or system HEK293
T5 sequence (P28335 whole entry): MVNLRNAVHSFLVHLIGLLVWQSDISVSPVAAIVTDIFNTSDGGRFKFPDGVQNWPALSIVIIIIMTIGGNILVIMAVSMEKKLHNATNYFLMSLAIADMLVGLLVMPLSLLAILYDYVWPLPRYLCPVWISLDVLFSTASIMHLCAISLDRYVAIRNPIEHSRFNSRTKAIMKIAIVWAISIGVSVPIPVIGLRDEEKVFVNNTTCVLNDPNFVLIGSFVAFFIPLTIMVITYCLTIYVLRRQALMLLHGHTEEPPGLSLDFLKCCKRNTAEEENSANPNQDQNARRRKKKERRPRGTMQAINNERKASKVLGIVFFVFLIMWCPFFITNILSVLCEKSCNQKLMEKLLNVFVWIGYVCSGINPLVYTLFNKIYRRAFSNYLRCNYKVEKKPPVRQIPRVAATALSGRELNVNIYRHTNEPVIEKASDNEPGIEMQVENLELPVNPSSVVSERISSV

[13] = target: T6, 5-hydroxytryptamine receptor 2C (Homo sapiens) (UniProt P28335); experiment: Displacement of [3H]mesulergine from human 5-HT2CR expressed in Flp-In HEK cell membranes at 10 uM incubated for 90 mins under dark condition by microbeta scintillation counting method relative to control; conditions: HEK293
T6 sequence (whole entry): T5 sequence (P28335 whole entry)

[14] = target: T7, Adenosine receptor A1 (Homo sapiens) (UniProt P30542); experiment: Displacement of [3H]N6-phenylisopropyladenosine from recombinant human A1AR expressed in CHO cell membranes at 10 uM after 60 mins by liquid scintillation counting method relative to control
T7 sequence (whole entry): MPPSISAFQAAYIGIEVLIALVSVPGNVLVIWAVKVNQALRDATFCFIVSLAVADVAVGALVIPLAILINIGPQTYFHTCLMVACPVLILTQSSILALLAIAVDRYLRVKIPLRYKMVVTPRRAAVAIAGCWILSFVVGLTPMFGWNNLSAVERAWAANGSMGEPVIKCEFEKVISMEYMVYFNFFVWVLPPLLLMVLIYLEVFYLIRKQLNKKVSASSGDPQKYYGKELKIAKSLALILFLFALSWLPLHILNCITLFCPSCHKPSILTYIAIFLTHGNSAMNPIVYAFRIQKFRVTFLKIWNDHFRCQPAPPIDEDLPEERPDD

[15] = target: Adenosine receptor A2a (Homo sapiens, UniProt P29274); experiment: Displacement of [3 H]2-[p-(2-carboxyethyl)phenyl-ethylamino]-5'-N-ethylcarboxamidoadenosine from recombinant human adenosine receptor A2A expressed in HEK293 cell membranes at 10 uM after 60 mins by liquid scintillation counting method relative to control
Adenosine receptor A2a, sequence (P29274 whole entry): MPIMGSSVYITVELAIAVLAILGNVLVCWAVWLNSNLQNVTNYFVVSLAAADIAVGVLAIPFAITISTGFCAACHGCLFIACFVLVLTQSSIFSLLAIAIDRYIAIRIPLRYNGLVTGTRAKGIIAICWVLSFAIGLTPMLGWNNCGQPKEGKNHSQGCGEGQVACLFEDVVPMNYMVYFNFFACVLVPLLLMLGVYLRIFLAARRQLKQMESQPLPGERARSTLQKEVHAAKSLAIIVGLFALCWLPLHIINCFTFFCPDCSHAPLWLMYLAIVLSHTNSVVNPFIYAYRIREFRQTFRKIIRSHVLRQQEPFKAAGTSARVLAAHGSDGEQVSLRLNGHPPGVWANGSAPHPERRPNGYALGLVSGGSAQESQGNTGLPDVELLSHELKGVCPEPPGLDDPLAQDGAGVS

[16] = target: T3, 5-hydroxytryptamine receptor 2A; experiment: Displacement of [3H]ketanserin from human 5-HT2A receptor expressed in HEK-T cell membranes incubated for 90 mins under dark condition by microbeta scintillation counting method
[17] = target: T4, 5-hydroxytryptamine receptor 2B; conditions: HEK293, at 10 µM
[18] = target: T8, Adenosine receptor A3 (Homo sapiens, UniProt P0DMS8); experiment: Displacement of [125l]N 6-(4-amino-3-iodobenzyl)adenosine-5'-N-methyluronamide from recombinant human A3AR expressed in CHO cell membranes after 60 mins by gamma counting method
T8 sequence (P0DMS8 whole entry): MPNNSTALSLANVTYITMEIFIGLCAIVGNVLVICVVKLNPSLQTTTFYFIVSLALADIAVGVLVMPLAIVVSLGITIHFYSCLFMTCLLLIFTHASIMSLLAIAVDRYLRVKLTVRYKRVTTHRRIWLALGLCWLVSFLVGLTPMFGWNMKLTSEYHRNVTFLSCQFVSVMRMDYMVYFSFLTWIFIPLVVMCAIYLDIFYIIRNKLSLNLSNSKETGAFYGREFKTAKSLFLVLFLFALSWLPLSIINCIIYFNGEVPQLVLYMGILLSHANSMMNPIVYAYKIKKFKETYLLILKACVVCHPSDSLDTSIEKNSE

[19] = target: T9, Adenosine receptor A1 (Homo sapiens, UniProt P30542); experiment: Displacement of [3H]N6-phenylisopropyladenosine from recombinant human A1AR expressed in CHO cell membranes after 60 mins by liquid scintillation counting method
T9 sequence (P30542 whole entry): T7 sequence (whole entry)

Compound | inhibition [1] [%] | inhibition [2] [%] | inhibition [3] [%] | inhibition [4] [%] | inhibition [5] [%] | inhibition [6] [%] | inhibition [7] [%] | inhibition [8] [%] | inhibition [9] | inhibition [10] [%] | Ki [11] [nM] | Ki [12] [nM] | inhibition [13] [%] | inhibition [14] [%] | inhibition [15] [%] | Ki [16] [nM] | inhibition [17] [%] | Ki [18] [nM] | Ki [19] [nM]
CN(C)c1nc(Cl)nc2c1ncn2[C@H]1[C@H](O)[C@H](O)[C@]2(CO)C[C@H]12 | < 50 | < 50 | < 50 | < 50 | < 50 | < 50 | < 50 | < 50 | < 50% | < 10 | 4800 | 8100 | > 50 | 11 | < 10 | > 10000 | > 50 | – | –
Fc1ccc(C#Cc2nc(NCc3cccc(Cl)c3)c3nc[nH]c3n2)cc1F | < 50 | < 50 | < 50 | < 50 | < 50 | < 50 | < 50 | < 50 | < 50% | < 10 | – | – | 11 | < 10 | < 10 | > 10000 | > 50 | – | –
Clc1cccc(CNc2nc(Cl)nc3[nH]cnc23)c1 | < 50 | < 50 | < 50 | < 50 | < 50 | < 50 | < 50 | < 50 | < 50% | 26 | 2160 | – | > 50 | 45 | 37 | > 10000 | > 50 | – | –
CC(=O)NCCCNC(=O)[C@@]12C[C@@H]1[C@@H](n1cnc3c(NC(C4CC4)C4CC4)nc(Cl)nc31)[C@H](O)[C@@H]2O | < 50 | < 50 | < 50 | < 50 | < 50 | < 50 | < 50 | < 50 | < 50% | < 10 | 534 | 2310 | > 50 | 46 | 26 | > 10000 | > 50 | – | –
CNC(=O)[C@@]12C[C@@H]1[C@@H](n1cnc3c(N(C)C)nc(Cl)nc31)[C@H](O)[C@@H]2O | < 50 | < 50 | < 50 | < 50 | < 50 | < 50 | < 50 | < 50 | < 50% | < 10 | 2100 | 4300 | > 50 | 26 | < 10 | > 10000 | > 50 | 1480 | –
CC(=O)NCCNC(=O)[C@@]12C[C@@H]1[C@@H](n1cnc3c(NC(C4CC4)C4CC4)nc(Cl)nc31)[C@H](O)[C@@H]2O | < 50 | < 50 | < 50 | < 50 | < 50 | < 50 | < 50 | < 50 | < 50% | < 10 | 332 | 1700 | > 50 | – | 20 | > 10000 | > 50 | 1650 | 397
CN(C)c1nc(Cl)nc2c1ncn2[C@H]1[C@H](O)[C@H](O)[C@]2(C(=O)O)C[C@H]12 | < 50 | < 50 | < 50 | < 50 | < 50 | < 50 | < 50 | < 50 | Active | < 10 | 4700 | 8000 | > 50 | – | < 10 | > 10000 | > 50 | 1080 | –
